US20240393292A1, “ALLERGY ANTIGEN AND EPITOPE THEREOF” (HOYU CO., LTD., priority 2019, published 2024)
Blank lines part the entries; values can stand above or below the substance they belong to.

Tested on: IgE antibodies from patients
Assay: Wheat epitope mapping (2): overlapping 10-amino-acid peptide fragments shifted by one amino acid;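 for Rank of partial sequence as epitope binding to IgE antibody: key = sequence deemed particularly important within the common 15-residue sequence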;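 for epitope sequence binding to IgE antibody, rank (Key/Preferably/More preferably): key of grades: preferably = shorter partial sequence still acting as epitope; more preferably = sequence improving IgE binding; key = particularly important sequence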
Assay type: binding, human
Conditions: for Rank of partial sequence as epitope binding to IgE antibody: sequence without X
How it was run: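 Residual binding was banded as <30% none, 30–<50% poor, 50–<70% somewhat poor and ≥70% retained, relative to the parent overlapping sequence set to 100%. Values were chemiluminescent IgE signals from patient sera after subtracting secondary-antibody-only controls. The peptides were spot-synthesised 10-mers shifted by one amino acid.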

[1] = serum of patient P50 (child, general immediate type allergy to wheat)
[2] = serum of patient P51 (child, general immediate type allergy to wheat)
[3] = serum of patient P52 (child, general immediate type allergy to wheat)
[4] = serum of patient P56 (child, general immediate type allergy to wheat)
[5] = serum of patient P57 (child, general immediate type allergy to wheat)
[6] = serum of patient G1 (adult, general immediate type allergy to wheat)
[7] = serum of patient G4 (adult, general immediate type allergy to wheat)
[8] = serum of patient G5 (adult, general immediate type allergy to wheat)
[9] = serum of patient G7 (adult, general immediate type allergy to wheat)
[10] = serum of patient P55 (child, general immediate type allergy to wheat)

Rank of partial sequence as epitope binding to IgE antibody (serum of patient P19 (WDEIA)): Preferably
Substance: 1693 (KEAANFTS; REGION 1..8: note = epitope) [compound 1693]

Rank of partial sequence as epitope binding to IgE antibody (serum of patient P19 (WDEIA)): Key
Substance: 1694 (EAANFTS; REGION 1..7: note = epitope) [compound 1694]

Rank of partial sequence as epitope binding to IgE antibody (serum of patient P20 (WDEIA)): Key
Substance: 1695 (EAANFT; REGION 1..6: note = epitope) [compound 1695]

Rank of partial sequence as epitope binding to IgE antibody (serum of patient P21 (WDEIA)): More preferably
Substance: 1698 (KEAANFT; REGION 1..7: note = epitope) [compound 1698]

Rank of partial sequence as epitope binding to IgE antibody (serum of patient P21 (WDEIA)): Preferably
Substance: 1699 (EAANFT; REGION 1..6: note = epitope) [compound 1699]

Rank of partial sequence as epitope binding to IgE antibody (serum of patient P25 (WDEIA)): Key
Substance: 1701 (EAANFT; REGION 1..6: note = epitope) [compound 1701]

Rank of partial sequence as epitope binding to IgE antibody (serum of patient P25 (WDEIA)): Key
Substance: 1702 (SQVIIM; REGION 1..6: note = epitope) [compound 1702]

Rank of partial sequence as epitope binding to IgE antibody (serum of patient P27 (WDEIA)): Key
Substance: 1703 (EAANFT; REGION 1..6: note = epitope) [compound 1703]

Rank of partial sequence as epitope binding to IgE antibody (serum of patient P28 (WDEIA)): Key
Substance: 1704 (EAANFT; REGION 1..6: note = epitope) [compound 1704]

Rank of partial sequence as epitope binding to IgE antibody (serum of patient P29 (WDEIA)): Key
Substance: 1706 (EAANFT; REGION 1..6: note = epitope) [compound 1706]

Rank of partial sequence as epitope binding to IgE antibody (serum of patient P29 (WDEIA)): Key
Substance: 1707 (SQVIIM; REGION 1..6: note = epitope) [compound 1707]

epitope sequence binding to IgE antibody, rank (Key/Preferably/More preferably) (serum of patient P34 (WDEIA)): More preferably
Substance: 1710 (KEAANFTS; REGION 1..8: note = epitope) [compound 1710]

epitope sequence binding to IgE antibody, rank (Key/Preferably/More preferably) (serum of patient P34 (WDEIA)): Preferably
Substance: 1711 (KEAANFT; REGION 1..7: note = epitope) [compound 1711]

epitope sequence binding to IgE antibody, rank (Key/Preferably/More preferably) (serum of patient P34 (WDEIA)): Key
Substance: 1712 (EAANF; REGION 1..5: note = epitope) [compound 1712]

epitope sequence binding to IgE antibody, rank (Key/Preferably/More preferably) (serum of patient P35 (WDEIA)): Preferably
Substance: 1714 (KEAANF; REGION 1..6: note = epitope) [compound 1714]

epitope sequence binding to IgE antibody, rank (Key/Preferably/More preferably) (serum of patient P35 (WDEIA)): Key
Substance: 1715 (KEAA; REGION 1..4: note = epitope) [compound 1715]

epitope sequence binding to IgE antibody, rank (Key/Preferably/More preferably) (serum of patient P35 (WDEIA)): Key
Substance: 1716 (SQVIIM; REGION 1..6: note = epitope) [compound 1716]

epitope sequence binding to IgE antibody, rank (Key/Preferably/More preferably) (serum of patient P36 (WDEIA)): More preferably
Substance: 1718 (EAANFT; REGION 1..6: note = epitope) [compound 1718]

epitope sequence binding to IgE antibody, rank (Key/Preferably/More preferably) (serum of patient P36 (WDEIA)): Preferably
Substance: 1719 (EAANF; REGION 1..5: note = epitope) [compound 1719]

epitope sequence binding to IgE antibody, rank (Key/Preferably/More preferably) [1]: Preferably
Substance: 1722 (KEAANFT; REGION 1..7: note = epitope) [compound 1722]

epitope sequence binding to IgE antibody, rank (Key/Preferably/More preferably) [1]: Key
Substance: 1723 (KEAANF; REGION 1..6: note = epitope) [compound 1723]

epitope sequence binding to IgE antibody, rank (Key/Preferably/More preferably) [2]: Preferably
Substance: 1726 (KEAANFTS; REGION 1..8: note = epitope) [compound 1726]

epitope sequence binding to IgE antibody, rank (Key/Preferably/More preferably) [2]: Key
Substance: 1727 (KEAANF; REGION 1..6: note = epitope) [compound 1727]

epitope sequence binding to IgE antibody, rank (Key/Preferably/More preferably) [3]: Key
Substance: 1728 (KEAANF; REGION 1..6: note = epitope) [compound 1728]

epitope sequence binding to IgE antibody, rank (Key/Preferably/More preferably) [3]: Preferably
Substance: 1729 (ANFTSQVIIM; REGION 1..10: note = epitope) [compound 1729]

epitope sequence binding to IgE antibody, rank (Key/Preferably/More preferably) [3]: Key
Substance: 1730 (SQVIIM; REGION 1..6: note = epitope) [compound 1730]

epitope sequence binding to IgE antibody, rank (Key/Preferably/More preferably) (serum of patient P53 (child, general immediate type allergy to wheat)): Key
Substance: 1732 (KEAA; REGION 1..4: note = epitope) [compound 1732]

epitope sequence binding to IgE antibody, rank (Key/Preferably/More preferably) [4]: Preferably
Substance: 1734 (KEAANFT; REGION 1..7: note = epitope) [compound 1734]

epitope sequence binding to IgE antibody, rank (Key/Preferably/More preferably) [4]: Key
Substance: 1735 (EAANFT; REGION 1..6: note = epitope) [compound 1735]

epitope sequence binding to IgE antibody, rank (Key/Preferably/More preferably) [5]: Preferably
Substance: 1737 (KEAANFT; REGION 1..7: note = epitope) [compound 1737]

epitope sequence binding to IgE antibody, rank (Key/Preferably/More preferably) [5]: Key
Substance: 1738 (EAANF; REGION 1..5: note = epitope) [compound 1738]

epitope sequence binding to IgE antibody, rank (Key/Preferably/More preferably) [6]: Preferably
Substance: 1739 (KEAANFT; REGION 1..7: note = epitope) [compound 1739]

epitope sequence binding to IgE antibody, rank (Key/Preferably/More preferably) [6]: Key
Substance: 1740 (KEAANF; REGION 1..6: note = epitope) [compound 1740]

epitope sequence binding to IgE antibody, rank (Key/Preferably/More preferably) [6]: Key
Substance: 1741 (SQVIIM; REGION 1..6: note = epitope) [compound 1741]

epitope sequence binding to IgE antibody, rank (Key/Preferably/More preferably) [7]: Preferably
Substance: 1742 (KEAAN; REGION 1..5: note = epitope) [compound 1742]

epitope sequence binding to IgE antibody, rank (Key/Preferably/More preferably) [7]: Key
Substance: 1743 (EAAN; REGION 1..4: note = epitope) [compound 1743]

epitope sequence binding to IgE antibody, rank (Key/Preferably/More preferably) [8]: Preferably
Substance: 1746 (EAANFTS; REGION 1..7: note = epitope) [compound 1746]

epitope sequence binding to IgE antibody, rank (Key/Preferably/More preferably) [8]: Key
Substance: 1747 (EAANFT; REGION 1..6: note = epitope) [compound 1747]

epitope sequence binding to IgE antibody, rank (Key/Preferably/More preferably) (serum of patient G6 (adult, general immediate type allergy to wheat)): Key
Substance: 1749 (EAANFT; REGION 1..6: note = epitope) [compound 1749]

epitope sequence binding to IgE antibody, rank (Key/Preferably/More preferably) [9]: Key
Substance: 1750 (KEAANFT; REGION 1..7: note = epitope) [compound 1750]

epitope sequence binding to IgE antibody, rank (Key/Preferably/More preferably) [9]: Key
Substance: 1751 (SQVIIM; REGION 1..6: note = epitope) [compound 1751]

epitope sequence binding to IgE antibody, rank (Key/Preferably/More preferably) (serum of patient G8 (adult, general immediate type allergy to wheat)): Key
Substance: 1752 (ANFTSQVIIM; REGION 1..10: note = epitope) [compound 1752]

epitope sequence binding to IgE antibody, rank (Key/Preferably/More preferably) (serum of patient P7 (WDEIA)): Key
Substance: 1755 (YLKK; REGION 1..4: note = epitope) [compound 1755]

epitope sequence binding to IgE antibody, rank (Key/Preferably/More preferably) (serum of patient P8 (WDEIA)): Key
Substance: 1756 (VSSYLKK; REGION 1..7: note = epitope) [compound 1756]

epitope sequence binding to IgE antibody, rank (Key/Preferably/More preferably) (serum of patient P8 (WDEIA)): Key
Substance: 1757 (KVGYNP; REGION 1..6: note = epitope) [compound 1757]

epitope sequence binding to IgE antibody, rank (Key/Preferably/More preferably) (serum of patient P14 (WDEIA)): Key
Substance: 1758 (YLKK; REGION 1..4: note = epitope) [compound 1758]

epitope sequence binding to IgE antibody, rank (Key/Preferably/More preferably) (serum of patient P17 (WDEIA)): Key
Substance: 1759 (YLKK; REGION 1..4: note = epitope) [compound 1759]

epitope sequence binding to IgE antibody, rank (Key/Preferably/More preferably) (serum of patient P18 (WDEIA)): Key
Substance: 1760 (EVSSYLKKV; REGION 1..9: note = epitope) [compound 1760]

epitope sequence binding to IgE antibody, rank (Key/Preferably/More preferably) (serum of patient P18 (WDEIA)): Key
Substance: 1761 (YLKKVGYN; REGION 1..8: note = epitope) [compound 1761]

epitope sequence binding to IgE antibody, rank (Key/Preferably/More preferably) (serum of patient P27 (WDEIA)): Key
Substance: 1762 (KEVSSYLKK; REGION 1..9: note = epitope) [compound 1762]

epitope sequence binding to IgE antibody, rank (Key/Preferably/More preferably) (serum of patient P27 (WDEIA)): Key
Substance: 1763 (LKKVGYN; REGION 1..7: note = epitope) [compound 1763]

epitope sequence binding to IgE antibody, rank (Key/Preferably/More preferably) (serum of patient P30 (WDEIA)): Key
Substance: 1764 (KEVSSYLKKV; REGION 1..10: note = epitope) [compound 1764]

epitope sequence binding to IgE antibody, rank (Key/Preferably/More preferably) (serum of patient P30 (WDEIA)): Key
Substance: 1765 (YLKKVGYN; REGION 1..8: note = epitope) [compound 1765]

epitope sequence binding to IgE antibody, rank (Key/Preferably/More preferably) (serum of patient P33 (WDEIA)): Key
Substance: 1767 (KKVGYNP; REGION 1..7: note = epitope) [compound 1767]

epitope sequence binding to IgE antibody, rank (Key/Preferably/More preferably) (serum of patient P35 (WDEIA)): Key
Substance: 1768 (VSSYLKK; REGION 1..7: note = epitope) [compound 1768]

epitope sequence binding to IgE antibody, rank (Key/Preferably/More preferably) (serum of patient P35 (WDEIA)): Key
Substance: 1769 (KVGYNP; REGION 1..6: note = epitope) [compound 1769]

epitope sequence binding to IgE antibody, rank (Key/Preferably/More preferably) [1]: Key
Substance: 1770 (VSSYLKK; REGION 1..7: note = epitope) [compound 1770]

epitope sequence binding to IgE antibody, rank (Key/Preferably/More preferably) [1]: Key
Substance: 1771 (KVGYNP; REGION 1..6: note = epitope) [compound 1771]

epitope sequence binding to IgE antibody, rank (Key/Preferably/More preferably) [10]: Key
Substance: 1773 (EVSSYLKK; REGION 1..8: note = epitope) [compound 1773]

epitope sequence binding to IgE antibody, rank (Key/Preferably/More preferably) [10]: Preferably
Substance: 1774 (YLKKVGYNP; REGION 1..9: note = epitope) [compound 1774]

epitope sequence binding to IgE antibody, rank (Key/Preferably/More preferably) [10]: Key
Substance: 1775 (LKKVGYN; REGION 1..7: note = epitope) [compound 1775]
